The values below come from publication PMC6864482, “Novel C7-Substituted Coumarins as Selective Monoamine Oxidase Inhibitors: Discovery, Synthesis and Theoretical Simulation” (Molecules, 2019).

Data set [1] deals with T1, hMAO-A (Homo sapiens, UniProt P21397).
T1 sequence (P21397 1-527): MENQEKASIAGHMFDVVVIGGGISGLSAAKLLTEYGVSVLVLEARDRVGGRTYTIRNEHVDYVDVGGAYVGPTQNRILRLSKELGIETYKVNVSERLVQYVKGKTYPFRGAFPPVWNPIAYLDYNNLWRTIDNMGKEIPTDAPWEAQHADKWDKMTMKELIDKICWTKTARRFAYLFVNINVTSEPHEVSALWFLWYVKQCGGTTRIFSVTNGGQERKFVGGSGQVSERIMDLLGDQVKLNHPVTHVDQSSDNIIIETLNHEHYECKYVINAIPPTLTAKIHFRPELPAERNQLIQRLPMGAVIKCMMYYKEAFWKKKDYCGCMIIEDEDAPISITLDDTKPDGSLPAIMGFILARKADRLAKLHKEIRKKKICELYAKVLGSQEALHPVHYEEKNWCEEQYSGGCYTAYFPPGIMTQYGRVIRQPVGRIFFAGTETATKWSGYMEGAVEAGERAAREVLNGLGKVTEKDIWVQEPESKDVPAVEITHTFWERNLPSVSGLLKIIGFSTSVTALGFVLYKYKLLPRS
Description: MAO-Glo inhibition assay, hMAO-A. In kind it is biochemical. As for the experimental part:
(§1) The inhibition and IC50 values of the identified C7-substituted coumarin analogues were assayed by Shanghai ChemPartner Co. Ltd., using MAO-GloTM assay kit (Promega Corporation, V1402). Two human MAO enzymes (Cat#31502, Cat#31503) were purchased from Active Motif. Clorgyline and R(-)-deprenyl were purchased as reference drugs from Sigma (Cat. No. M3778) and Abcam (Cat. No. ab120604), respectively. The MAO inhibition assays were carried out in modified HEPES buffer in light of the manufacturer’s protocol. Firstly, the tested compounds in DMSO were transferred to a 384-well plate by Echo. The enzyme solutions were then added into the plate and the plate was incubated for 15 min at room temperature (r.t.). Secondly, the luciferin derivative substrate was added to initiate the reaction. After 60 min incubation at r.t., the Luciferin detection reagent was added to each well to terminate the reaction and generate the luminescent signal. Before reading the signal, the plate was incubated for 20 min at r.t. Finally, plate reader was used to measure and record the luminescent signal and corresponding data were processed using GraphPad Prism 5.

Data set [2] concerns the target T2, hMAO-B (Homo sapiens, UniProt P27338).
T2 sequence (P27338 1-520): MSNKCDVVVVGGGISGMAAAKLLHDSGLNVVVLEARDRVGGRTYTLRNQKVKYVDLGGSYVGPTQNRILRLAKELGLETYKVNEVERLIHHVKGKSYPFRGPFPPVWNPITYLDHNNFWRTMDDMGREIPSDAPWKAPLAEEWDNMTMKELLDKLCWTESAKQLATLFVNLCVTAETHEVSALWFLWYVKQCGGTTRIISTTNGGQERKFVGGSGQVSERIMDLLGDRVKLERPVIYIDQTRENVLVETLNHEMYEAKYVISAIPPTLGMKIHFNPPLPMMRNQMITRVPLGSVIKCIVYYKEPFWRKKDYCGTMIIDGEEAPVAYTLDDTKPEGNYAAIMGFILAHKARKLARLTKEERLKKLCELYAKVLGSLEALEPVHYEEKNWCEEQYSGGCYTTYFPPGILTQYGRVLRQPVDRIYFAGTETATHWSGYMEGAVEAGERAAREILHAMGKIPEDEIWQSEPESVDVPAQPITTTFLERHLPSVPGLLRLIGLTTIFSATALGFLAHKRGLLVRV
Put plainly: MAO-Glo inhibition assay, hMAO-B. The class given is biochemical. As for the experimental part:
as §1

Data set [3] has as its target T2, hMAO-B. The settings on record: cited from earlier work.
The target in data set [4] is T1, hMAO-A. The settings on record: cited from earlier work.
The mark [5] stands for this setting: Table S3, Esuprone derivatives, read-out: MAO-A* IC50.
Setting [6] is: experimental activity of reference ligand C18 of 2V61, source not stated.
[7] abbreviates: purchased (Specs) or synthesized compounds, read-out: MAO-A IC50.
The mark [8] stands for this setting: purchased (Specs) or synthesized compounds.
Where [9] appears, read: previously identified BRS-3D hits.
The mark [10] stands for this setting: pIC50 = −log(IC50), previously identified BRS-3D hits.

Where a name gives a salt, the structure may show the parent alone. Read-outs that look alike come from different tables or passages of the source.

The melting point is the temperature, or range, at which the solid turns liquid. For the compound `Cc1c(OS(=O)(=O)c2ccc([N+](=O)[O-])cc2)ccc2c3c(c(=O)oc12)CCC3` (as salt: benzenesulfonate) [5c, 6-Methyl-4-oxo-1,2,3,4-tetrahydrocyclopenta[c]chromen-7-yl 4-nitrobenzenesulfonate], the melting point lay in the range of 192 to 194 °C.

As a reminder, the IC50 is the concentration needed to halve the response being measured. Consider `CCCc1cc(=O)oc2c(C)c(OS(=O)(=O)c3ccc(C)cc3)ccc12` [7i, 8-Methyl-2-oxo-4-propyl-2H-chromen-7-yl 4-methylbenzenesulfonate], for which the IC50 in data set [1] (setting [5]) came out at 0.17 µM; in data set [2] (Table S3, Esuprone derivatives), 4.1 µM.

Consider `CNCc1cc(=O)oc2cc(OCc3cccc(Cl)c3)ccc12` [C18, reference compound], for which the “MAO-B pIC50” value in data set [3] (setting [6]) was 7. The “MAO-A pIC50” value in data set [4] (setting [6]) was 4.8.

Compound `Cc1ccc(S(=O)(=O)Oc2ccc3c(C4CC4)cc(=O)oc3c2)cc1` [7e, 4-Cyclopropyl-2-oxo-2H-chromen-7-yl 4-methylbenzenesulfonate] gave a melting point of 132 to 134 °C. Besides, the IC50 in data set [1] (setting [5]) worked out at 1.1 µM. The IC50 in data set [2] (Table S3, Esuprone derivatives) is 9.5 µM.

For `CCS(=O)(=O)Oc1ccc2c(C)c(C)c(=O)oc2c1` [Esuprone, reference compound], in data set [4] (comparison value under Table S3, MAO-A by context, source not stated, read-out: IC50 value of Esuprone), the IC50 was 0.0107 µM.

In general, inhibition refers to the drop in the measured response relative to a control, in per cent. A low value points to a weak effect. For `Cc1c(OCC(=O)N(C)C)ccc2c3c(c(=O)oc12)CCC3` [FR2], the IC50 was 2.82 µM in data set [1] (setting [7]) and > 10 µM in data set [2] (setting [8]). The inhibition at 10 µM in data set [2] was determined as 12%.

`CCCc1cc(=O)oc2c(C)c(OS(=O)(=O)c3ccc([N+](=O)[O-])cc3)ccc12` (as salt: benzenesulfonate) [7j, 8-Methyl-2-oxo-4-propyl-2H-chromen-7-yl 4-nitrobenzenesulfonate] came in with a melting point of 171 to 174 °C.

`Cc1cc(=O)oc2c(C)c(OCC(=O)N(C)C)ccc12` [M29]: the “MAO-B Avg. Inh% at 10 uM” value in data set [3] (setting [9]) is 12%. Moreover, the “MAO-B pIC50” value in data set [3] (setting [10]) is recorded as 4. Further, the “MAO-A Avg. Inh% at 10 uM” value in data set [4] (setting [9]) is on record as 75%. Besides, in data set [4] (setting [10]), the “MAO-A pIC50” value is 5.6. Also, the IC50 in data set [4] (previously identified BRS-3D hits, read-out: MAO-A IC50) was 2.29 µM.

As for `C=CCOC(=O)COc1ccc2c3c(c(=O)oc2c1C)CCCC3` [FR3], the IC50 was 0.74 µM in data set [1] (setting [7]) and > 5 µM in data set [2] (setting [8]). This compound also showed an inhibition at 10 µM in data set [2] of 66%.

For the compound `Cc1cc(=O)oc2cc(OCC(=O)N(C)C)ccc12` [M33], in data set [3] (setting [9]), the “MAO-B Avg. Inh% at 10 uM” value is given as 8%. For the same compound, the “MAO-A Avg. Inh% at 10 uM” value in data set [4] (setting [9]) is 41%.

For the compound `CCc1cc(=O)oc2cc(OCC(=O)N(C)C)ccc12` [M30], the “MAO-B Avg. Inh% at 10 uM” value in data set [3] (setting [9]) is listed as 22%. In data set [4] (setting [9]), the “MAO-A Avg. Inh% at 10 uM” value is 56%.

Consider `Cc1c(C)c2cc(Cl)c(Oc3nnc(-c4ccccc4)s3)cc2oc1=O` [7c, 6-Chloro-3,4-dimethyl-7-((5-phenyl-1,3,4-thiadiazol-2-yl)oxy)-2H-chromen-2-one], for which the melting point fell in the range of 171 to 173 °C. Further, in data set [1] (setting [7]), the IC50 is 0.81 µM. The compound also came in with an IC50 in data set [2] (setting [8]) of 0.44 µM.

With `CCCc1cc(=O)oc2c(C)c(OS(=O)(=O)c3ccc([N+](=O)[O-])cc3)ccc12` [7j, 8-Methyl-2-oxo-4-propyl-2H-chromen-7-yl 4-nitrobenzenesulfonate], the half-maximal inhibitory concentration (IC50) came out at 0.029 µM in data set [1] (setting [5]) and 1.7 µM in data set [2] (Table S3, Esuprone derivatives).

The compound `CCCc1cc(=O)oc2c(C)c(OS(=O)(=O)c3ccc(C)cc3)ccc12` (as salt: benzenesulfonate) [7i, 8-Methyl-2-oxo-4-propyl-2H-chromen-7-yl 4-methylbenzenesulfonate] gave a melting point of 144 to 146 °C.

`CCCc1cc(=O)oc2c(C)c(Oc3nnc(-c4ccccc4)s3)ccc12` [7k, 8-Methyl-7-((5-phenyl-1,3,4-thiadiazol-2-yl)oxy)-4-propyl-2H-chromen-2-one] showed a melting point of 110 to 112 °C. The IC50 in data set [1] (setting [7]) was 0.021 µM. This compound also registered an IC50 in data set [2] (setting [8]) of 0.12 µM.

Consider `CCS(=O)(=O)Oc1ccc2c(C3CC3)cc(=O)oc2c1` [7d, 4-Cyclopropyl-2-oxo-2H-chromen-7-yl ethanesulfonate], for which the melting point was 92 °C. For the same compound, the IC50 in data set [1] (setting [5]) worked out at 1.4 µM. The IC50 in data set [2] (Table S3, Esuprone derivatives) was > 100 µM.

With `Cc1cc(=O)oc2c(C)c(Oc3nnc(-c4ccccc4)s3)ccc12` [SP1], the IC50 was 0.019 µM in data set [1] (setting [7]) and > 5 µM in data set [2] (setting [8]). Besides, the inhibition at 10 µM in data set [2] is 64%.

On to `Cc1c(OS(=O)(=O)c2ccc([N+](=O)[O-])cc2)ccc2c3c(c(=O)oc12)CCC3` [5c, 6-Methyl-4-oxo-1,2,3,4-tetrahydrocyclopenta[c]chromen-7-yl 4-nitrobenzenesulfonate], for which the IC50 in data set [1] (setting [5]) is < 0.005 µM; in data set [1] (read-out: hMAO-A IC50) it was ~0.005 µM; in data set [2] (Table S3, Esuprone derivatives), 0.59 µM.

`O=C(COc1ccc2c3c(c(=O)oc2c1)CCC3)c1ccc(Cl)cc1` [FR4] had an inhibition at 10 µM in data set [1] of 23%. For the same compound, the IC50 is > 10 µM in data set [1] (setting [7]) and 0.018 µM in data set [2] (setting [8]).

In the case of `Cc1c(OC(=O)C2CC2)ccc2c3c(c(=O)oc12)CCC3` [FR1], the IC50 is 0.0015 µM in data set [1] (setting [7]) and > 1 µM in data set [2] (setting [8]). In data set [2], this compound yielded an inhibition at 10 µM of 75%.

Take `O=c1cc(C2CC2)c2ccc(Oc3nnc(-c4ccccc4)s3)cc2o1` [7g, 4-Cyclopropyl-7-((5-phenyl-1,3,4-thiadiazol-2-yl)oxy)-2H-chromen-2-one]: the melting point lay within 158 to 160 °C. Further, in data set [1] (setting [7]), the 50% inhibitory concentration (IC50) was found to be 2 µM. For the same compound, half-maximal inhibition in data set [2] (setting [8]) (IC50) was put at 6.2 µM.

In turn, `CCCc1cc(=O)oc2cc(Oc3nnc(-c4ccccc4)s3)ccc12` [7b, 7-((5-Phenyl-1,3,4-thiadiazol-2-yl)oxy)-4-propyl-2H-chromen-2-one] yielded a melting point of 150 °C. Further, in data set [1] (setting [7]), the IC50 came to 0.024 µM.

On to `O=c1cc(C2CC2)c2ccc(OS(=O)(=O)c3ccc([N+](=O)[O-])cc3)cc2o1` [7f, 4-Cyclopropyl-2-oxo-2H-chromen-7-yl 4-nitrobenzenesulfonate], for which the IC50 was 0.095 µM in data set [1] (setting [5]) and 9 µM in data set [2] (Table S3, Esuprone derivatives).

Turning to `Cc1c(Oc2nnc(-c3ccccc3)s2)ccc2c3c(c(=O)oc12)CCC3` [5d], the melting point was 140 °C. In addition, in data set [1] (setting [7]), the IC50 is 0.096 µM. The 50% inhibitory concentration (IC50) in data set [2] (setting [8]) came to 2.3 µM.

In the case of `CCCc1cc(=O)oc2c(C)c(OS(=O)(=O)CC)ccc12` [7h, 8-Methyl-2-oxo-4-propyl-2H-chromen-7-yl ethanesulfonate], the melting point lay within 78 to 80 °C. Besides, the IC50 in data set [1] (setting [5]) amounted to 0.91 µM. The same compound displayed an IC50 in data set [2] (Table S3, Esuprone derivatives) of 9.9 µM.

The compound `Cc1cc(=O)oc2cc(OCCOc3ccccc3)ccc12` [FR5] came in with an inhibition at 10 µM in data set [1] of 28%. Moreover, the IC50 in data set [1] (setting [7]) is > 10 µM; in data set [2] (setting [8]), 0.015 µM.

In turn, `Cc1ccc(S(=O)(=O)Oc2ccc3c4c(c(=O)oc3c2C)CCC4)cc1` [5b, 6-Methyl-4-oxo-1,2,3,4-tetrahydrocyclopenta[c]chromen-7-yl 4-methylbenzenesulfonate] came in with a melting point of 152 °C. In data set [1] (setting [5]), the IC50 was 0.012 µM. In data set [2] (Table S3, Esuprone derivatives), the IC50 came out at 4.9 µM.

Consider `CCS(=O)(=O)Oc1ccc2c3c(c(=O)oc2c1C)CCC3` [5a, 6-Methyl-4-oxo-1,2,3,4-tetrahydrocyclopenta[c]chromen-7-yl ethanesulfonate], for which the melting point fell in the range of 150 to 151 °C. The IC50 in data set [1] (setting [5]) turned out to be 0.011 µM. This compound also yielded an IC50 in data set [2] (Table S3, Esuprone derivatives) of 2.3 µM.

Compound `O=c1cc(C2CC2)c2ccc(OS(=O)(=O)c3ccc([N+](=O)[O-])cc3)cc2o1` (as salt: benzenesulfonate) [7f, 4-Cyclopropyl-2-oxo-2H-chromen-7-yl 4-nitrobenzenesulfonate] displayed a melting point of 192 to 194 °C.
